From US20110293745A1, “AURORA KINASE INHIBITORS” (SUNESIS PHARMACEUTICALS, INC., priority 2008, published 2011)

Legend:
[1] = Pharmacokinetics, single bolus intravenous injection; format: in vivo, Sprague-Dawley rats; details: Sprague-Dawley, rat, plasma, 5 mg/kg
From the text: Pharmacokinetic parameters were estimated using noncompartmental analysis within WinNonlin v. 4.1. Quantification of Compound 2 was done by HPLC-MS/MS after extraction from plasma with acetonitrile. […] For rising dose experiments measuring exposure for each species, sets containing several animals were singly dosed at a given dose. Results from single-dose experiments are shown in FIG. 10A, Table 43, and in FIG. 10B and Table 44, respectively. […] C0 is initial concentration extrapolated to time zero. AUCINF is area under the plasma-concentration time curve from time zero extrapolated to the infinite time. CL is clearance; Vss is steady state volume of distribution. T1/2 is half-life.

[2] = Clinical serum concentration versus target threshold; format: in vivo, human; details: patients; for Duration of target serum concentration: target serum concentration 1 μM
[3] = target: T1, DDR2 (Homo sapiens, UniProt Q16832); assay: Radiometric kinase assay (Upstate panel); format: biochemical
T1 construct: purchased Upstate Biotechnology, Dundee, UK
T1 sequence (Q16832 22-855): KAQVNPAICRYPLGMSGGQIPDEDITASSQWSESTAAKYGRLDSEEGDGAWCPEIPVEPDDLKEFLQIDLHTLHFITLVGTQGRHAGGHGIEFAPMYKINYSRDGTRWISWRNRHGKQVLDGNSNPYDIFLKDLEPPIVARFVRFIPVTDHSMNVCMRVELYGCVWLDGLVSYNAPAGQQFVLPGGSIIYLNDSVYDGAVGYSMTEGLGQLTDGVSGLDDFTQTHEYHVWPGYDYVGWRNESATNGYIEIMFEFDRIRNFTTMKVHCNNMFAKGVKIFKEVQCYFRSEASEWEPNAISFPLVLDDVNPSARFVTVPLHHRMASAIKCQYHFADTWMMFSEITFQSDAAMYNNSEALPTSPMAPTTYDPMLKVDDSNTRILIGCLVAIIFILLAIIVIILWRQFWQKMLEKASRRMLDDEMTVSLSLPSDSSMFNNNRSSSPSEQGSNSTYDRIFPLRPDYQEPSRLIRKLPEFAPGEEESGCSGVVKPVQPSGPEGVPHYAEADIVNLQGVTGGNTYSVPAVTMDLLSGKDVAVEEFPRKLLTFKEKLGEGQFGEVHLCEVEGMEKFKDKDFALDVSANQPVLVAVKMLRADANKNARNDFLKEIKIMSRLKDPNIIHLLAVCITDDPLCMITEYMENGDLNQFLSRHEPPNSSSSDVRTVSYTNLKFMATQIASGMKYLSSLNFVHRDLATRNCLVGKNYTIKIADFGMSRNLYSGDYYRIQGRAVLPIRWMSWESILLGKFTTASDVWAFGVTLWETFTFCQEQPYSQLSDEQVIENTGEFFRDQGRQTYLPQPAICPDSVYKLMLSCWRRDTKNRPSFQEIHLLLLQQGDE

[4] = target: T2, Axl (Homo sapiens, UniProt P30530); assay: Radiometric kinase assay (Upstate panel); format: biochemical
T2 construct: purchased Upstate Biotechnology, Dundee, UK
T2 sequence (P30530 26-894): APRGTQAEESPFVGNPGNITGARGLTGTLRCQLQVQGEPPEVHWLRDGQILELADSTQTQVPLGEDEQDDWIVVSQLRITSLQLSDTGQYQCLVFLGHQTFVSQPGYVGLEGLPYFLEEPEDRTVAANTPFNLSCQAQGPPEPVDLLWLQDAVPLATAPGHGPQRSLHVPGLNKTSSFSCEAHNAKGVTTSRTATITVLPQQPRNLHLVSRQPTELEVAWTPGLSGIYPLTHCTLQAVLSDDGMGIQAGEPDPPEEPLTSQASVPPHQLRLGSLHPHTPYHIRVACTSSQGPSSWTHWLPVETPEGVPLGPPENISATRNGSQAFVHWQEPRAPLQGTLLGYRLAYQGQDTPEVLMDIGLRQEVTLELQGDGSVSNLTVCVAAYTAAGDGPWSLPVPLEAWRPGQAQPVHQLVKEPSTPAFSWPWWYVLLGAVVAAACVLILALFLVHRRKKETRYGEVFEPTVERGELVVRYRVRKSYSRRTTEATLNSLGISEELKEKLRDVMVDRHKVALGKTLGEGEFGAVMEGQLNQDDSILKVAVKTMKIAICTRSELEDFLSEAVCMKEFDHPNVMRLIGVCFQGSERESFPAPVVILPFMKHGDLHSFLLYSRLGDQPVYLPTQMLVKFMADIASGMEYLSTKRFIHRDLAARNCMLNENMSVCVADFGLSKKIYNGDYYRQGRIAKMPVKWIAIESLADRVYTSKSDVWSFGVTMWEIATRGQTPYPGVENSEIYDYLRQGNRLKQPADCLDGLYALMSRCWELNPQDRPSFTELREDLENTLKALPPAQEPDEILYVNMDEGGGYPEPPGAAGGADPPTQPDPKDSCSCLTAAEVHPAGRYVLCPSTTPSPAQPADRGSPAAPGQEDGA

[5] = target: Aurora C (Homo sapiens, UniProt Q9UQB9); assay: HTRF-based biochemical IC50 assay
Chain of Aurora C (Q9UQB9 whole entry): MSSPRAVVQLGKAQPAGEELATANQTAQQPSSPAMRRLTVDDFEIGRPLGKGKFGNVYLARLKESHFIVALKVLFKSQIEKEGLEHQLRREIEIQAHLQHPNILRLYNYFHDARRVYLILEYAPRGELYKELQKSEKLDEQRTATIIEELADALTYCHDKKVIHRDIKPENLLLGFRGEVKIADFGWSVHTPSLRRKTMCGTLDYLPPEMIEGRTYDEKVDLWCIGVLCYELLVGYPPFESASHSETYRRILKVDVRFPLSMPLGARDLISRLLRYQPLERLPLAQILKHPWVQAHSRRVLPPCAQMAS
From the text: […]. A biotin-conjugated histone H3 peptide (Upstate Biotechnology) was used as a substrate.

[6] = test system: pHH3 in A2780; assay: cells; details: Homo sapiens, A2780, 1 h, read-out: pHH3 IC50
Description: (§1) For analysis of pHH3 on adherent cells (HCT116, A375, and H1299), tumor cells were grown in 96-well tissue culture plates overnight at 37° C. […] Cells were fixed, permeabilized and exposed to anti-pHH3 antibody and analyzed for pHH3 staining. Data were fit to an IC50 equation. For analysis of pHH3 on nonadherent cells or cells with irregular morphology (A2780, Calu-6, and HT-29), tumor cells were seeded in 6-well tissue culture plates overnight at 37° C. […] Cells were trypsinized, collected, lysed, and analyzed by immunoblotting.

[7] = test system: pHH3 in A375; assay: cells; details: Homo sapiens, A-375, 1 h, read-out: pHH3 IC50
Description: as §1

[8] = test system: pHH3 in Calu-6; assay: cells; details: Homo sapiens, Calu-6, 1 h, read-out: pHH3 IC50
Description: as §1

[9] = test system: pHH3 in H1299; assay: cells; details: Homo sapiens, NCI-H1299, 1 h, read-out: pHH3 IC50
Description: as §1

[10] = test system: HCT 116 tumor xenograft; assay: Microscopy of tumor sections (Caspase-3, H&E); format: in vivo, mouse; details: 170 mg/kg twice-weekly for three weeks
Description: The studies in Examples 20, 21, and 22 used female mice nu/nu athymic mice. Compound 1 was formulated fresh each week for dosing.
HCT 116 colorectal carcinoma cells were implanted in the animals' right hind flanks subcutaneously with 200 μL of a 2.5×10^7 cells/mL suspension [1:1 Dulbecco's PBS (DPBS) with cells:Matrigel™. For each of the studies of compound distribution, pHH3 levels, and tumor section microscopy, after the tumors reached an average volume of 500 mm^3, the animals were weighed and sorted into randomized groups before initial dosing. Dosing schedules are provided separately for each of the studies in Examples 28, 29, and 30.
Following the treatment, tumors were harvested, placed in Streck fixative, paraffin embedded, sectioned, and transferred to slides. Tumor sections were stained with hematoxylin and eosin (H&E). Hematoxylin stains negatively charged nucleic acid structures, such as nuclei and ribosomes, blue, whereas eosin stains proteins pink. Treatments were administered on Day 1, 4, 8, 11, 15, and 18, with tumors being excised Day 4, 11, 18, and 25 of the study. All images in this Figure were taken at 40× magnification.

[11] = test system: A2780 ovarian cancer xenograft; assay: In vivo efficacy, mouse xenograft
Description: Percent TGI is then calculated with the following equation: […]
Time To Endpoint (TTE) was calculated for each individual animal to reach the predetermined study end point where the tumor volume becomes 1200 mm^3 or 10% of body weight or a greater than 20% body weight loss for two sequential measurements. The TTE is calculated and the median value is recorded for the group. Tumor Growth Delay (TGD) is then calculated with the following equation: […]
A2780 ovarian cancer cells [200 μL of a 2.5×10^7 cells/mL suspension (1:1 DPBS with cells:Matrigel)] were implanted subcutaneously in the right hind flank of mice. After 7 days, when tumors reached an average volume of approximately 130 mm^3, animals were weighed, randomized by tumor volume (l×w×h×0.52), and assigned to the various study groups before initial dosing.

[12] = test system: MV-4-11 (human acute myeloid leukemia) xenograft; assay: In vivo efficacy, mouse xenograft; details: 150 mg/kg IP twice-weekly for 3 weeks
Description: The human cell line MV-4-11 (human acute myeloid leukemia) was established as subcutaneous xenografts in nu/nu female mice. Animals were randomized by tumor volume and distributed into groups of ten animals each. Treatments were initiated when tumors averaged about 200 mm^3 in volume. End points for each group were determined based on body weight nadir, adverse clinical observations, or tumor volumes exceeding maximum threshold of 2000 mm^3.
[…]. Responses were assessed by tumor growth inhibition (TGI) and tumor growth delay (TGD). TGI and TGD in the treatment group were evaluated against the vehicle control group.

[13] = test system: broad panel of cancer cell lines; assay: cells; details: Homo sapiens, 96 h, read-out: anti-proliferative IC50 values
Description: (§2) Cellular proliferation was assessed using the Cell Proliferation ELISA, bromodeoxyuridine (BrdU) kit (Roche) including reagents, according to the kit protocol.

[14] = test system: HT-29; assay: cells; details: Homo sapiens, HT-29, 96 h, read-out: BrdU IC50
Description: as §2

[15] = test system: pHH3 in HT-29; assay: cells; details: Homo sapiens, HT-29, 1 h, read-out: pHH3 IC50
[16] = test system: variety of mice xenograft models representing a range of tissue types; assay: In vivo efficacy across xenograft models (summary); details: dose-dependent, well tolerated doses

Q: Which AUC(0-inf) [1] does the source give for `O=C(Nc1cccc(Cl)c1)Nc1ncc(CCNc2ncnc3ccsc23)s1` [Compound 2, 1-(3-chlorophenyl)-3-{5-[2-(thieno[3,2-d]pyrimidin-4-ylamino)ethyl]thiazol-2-yl}-urea] here?
A: 2100 ng·h/mL

Q: What about the C0 [1] of the same compound?
A: 3600 ng/mL

Q: What about the clearance [1] of the same compound?
A: 41.2 mL/min/kg

Q: What about the half-life [1] of the same compound?
A: 48 min

Q: And the Vd ([1]; read-out: Vss)?
A: 1.8 L/kg

Q: What about the “serum levels versus preclinical target inhibitory levels” value ([2]; 240 mg/m^2 dose level) of the same compound?
A: exceeded the preclinical target inhibitory levels

Q: What about the “minimum duration target serum concentration was achieved” value ([2]; all dose levels) of the same compound?
A: ≥ 4 h

Q: What about the “Duration of target serum concentration” value ([2]; 3-hour infusion of Compound 1, 30 mg/m^2) of the same compound?
A: 4 h

Q: And the “Duration of target serum concentration” value ([2]; 3-hour infusion of Compound 1, 60 mg/m^2)?
A: 8 h

Q: What about the “Duration of target serum concentration” value ([2]; 3-hour infusion of Compound 1, 120 mg/m^2) of the same compound?
A: 10 h

Q: What about the “Duration of target serum concentration” value ([2]; 3-hour infusion of Compound 1, 240 mg/m^2) of the same compound?
A: 20 h

Q: What about the “Duration of target serum concentration” value ([2]; 3-hour infusion of Compound 1, 480 mg/m^2) of the same compound?
A: 20 h

Q: With `CS(=O)(=O)O.O=C(Nc1cccc(Cl)c1)Nc1ncc(CCNc2ncnc3ccsc23)s1` [Compound 1, 1-(3-chlorophenyl)-3-{5-[2-(thieno[3,2-d]pyrimidin-4-ylamino)ethyl]thiazo}-urea] as the compound, how does the IC50 [3] read?
A: 0.082 µM

Q: And the IC50 [4]?
A: 0.084 µM

Q: What about the “IC50 values, Aurora kinase C (summary in words)” value [5] of the same compound?
A: low nanomolar range

Q: And the IC50 ([5]; HTRF, N 1)?
A: 0.0034 µM

Q: And the IC50 [6]?
A: 150 nM

Q: What about the IC50 [7] of the same compound?
A: 15 nM

Q: And the IC50 [8]?
A: 60 nM

Q: What about the IC50 [9] of the same compound?
A: 58 nM

Q: And the “large polyploid cells in tumor” value [10]?
A: appeared by Day 4 and persisted for at least 25 days

Q: What about the “caspase-3 positive cells in tumor versus vehicle” value ([10]; up to 18 days) of the same compound?
A: significant increase

Q: And the “% TGI” value ([11]; 42.5 mg/kg biw × 3)?
A: 0%

Q: And the TGD ([11]; 42.5 mg/kg biw × 3)?
A: 0 days

Q: What about the “% TGI” value ([11]; 85 mg/kg biw × 3) of the same compound?
A: 9.8%

Q: And the TGD ([11]; 85 mg/kg biw × 3)?
A: 3.5 days

Q: What about the “% TGI” value ([11]; 170 mg/kg biw × 3) of the same compound?
A: 53.8%

Q: And the TGD ([11]; 170 mg/kg biw × 3)?
A: 9 days

Q: What about the tumor growth delay [12] of the same compound?
A: 10 days

Q: What about the “Percent tumor growth inhibition (% TGI)” value ([12]; p-value 0.0008) of the same compound?
A: 75.56%

Q: And the IC50 [13]?
A: 2 to 10 nM

Q: And the IC50 [14]?
A: 24.4 nM

Q: What about the IC50 [15] of the same compound?
A: 60 nM

Q: And the tumor growth inhibition [16]?
A: 58-99%
